Measured values from PubChem BioAssay AID2060497 (Molecular Pharmacology Branch, DTP, NCI, 2025).

System: 317291-083-R-J1-PDC complex spheroids, viability
Assay: Anticancer human tumor 317291-083-R-J1-PDC patient-derived soft tissue sarcoma cell line growth inhibition [GQUAD]
Details: for IC50: curve of first compound; for viability, T/C: stronger effect = lower value
Procedure, shortened: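 Multi-cell-type spheroids of tumor cells with HUVEC and mesenchymal stem cells, treated with drug combinations. Concentrations descend in half-log steps from near clinical Cmax, or from 10 microM where Cmax is unknown; viability read-out.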
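Further: spheroids exposed to compounds for one week before readout.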
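Wherever viability, T/C is given: percent viability relative to DMSO vehicle wells taken as 100%.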

Which IC50 (second compound 0.0316 µM) does the source give for `C#Cc1c(F)ccc2cc(O)cc(-c3ncc4c(N5CC6CCC(C5)N6)nc(OCC56CCCN5CC(F)C6)nc4c3F)c12` (configuration not stated) + Cc1cnc(CNC(=O)c2c(=O)c3ccc(N4CCCN(C)CC4)nc3n3c2sc2ccccc23)cn1 here?
The IC50 was greater than 10000 nM.

What about the IC50 (second compound 0.1 µM) of the same compound?
Its IC50 is greater than 10000 nM.

What about the IC50 (second compound 0.316 µM) of the same compound?
Its IC50 is less than 31.6 nM.

And the IC50 (second compound 1 µM)?
Its IC50 is less than 31.6 nM.

And the IC50 (second compound 3.16 µM)?
Its IC50 is less than 31.6 nM.

And the IC50 (second compound 10 µM)?
Its IC50 is less than 31.6 nM.

And the viability, T/C (second compound 0.0316 µM, first compound 0.0316 µM)?
The viability, T/C was 107%.

And the viability, T/C (second compound 0.0316 µM, first compound 0.1 µM)?
The viability, T/C was 104%.

And the viability, T/C (second compound 0.0316 µM, first compound 0.316 µM)?
The viability, T/C was 99.9%.

And the viability, T/C (second compound 0.0316 µM, first compound 1 µM)?
Its viability, T/C is 105%.

And the viability, T/C (second compound 0.0316 µM, first compound 3.16 µM)?
The viability, T/C was 90.6%.

What about the viability, T/C (second compound 0.0316 µM, first compound 10 µM) of the same compound?
Its viability, T/C is 66.5%.

What about the viability, T/C (second compound 0.1 µM, first compound 0.0316 µM) of the same compound?
The viability, T/C was 89%.

What about the viability, T/C (second compound 0.1 µM, first compound 0.1 µM) of the same compound?
The viability, T/C was 74.4%.

What about the viability, T/C (second compound 0.1 µM, first compound 0.316 µM) of the same compound?
Its viability, T/C is 57.7%.

What about the viability, T/C (second compound 0.1 µM, first compound 1 µM) of the same compound?
Its viability, T/C is 87.2%.

What about the viability, T/C (second compound 0.1 µM, first compound 3.16 µM) of the same compound?
The viability, T/C was 76%.

And the viability, T/C (second compound 0.1 µM, first compound 10 µM)?
Its viability, T/C is 80.9%.

And the viability, T/C (second compound 0.316 µM, first compound 0.0316 µM)?
The viability, T/C was 45.3%.

And the viability, T/C (second compound 0.316 µM, first compound 0.1 µM)?
The viability, T/C was 52.1%.

What about the viability, T/C (second compound 0.316 µM, first compound 0.316 µM) of the same compound?
The viability, T/C was 53.3%.

What about the viability, T/C (second compound 0.316 µM, first compound 1 µM) of the same compound?
Its viability, T/C is 36.7%.

What about the viability, T/C (second compound 0.316 µM, first compound 3.16 µM) of the same compound?
The viability, T/C was 51.7%.

What about the viability, T/C (second compound 0.316 µM, first compound 10 µM) of the same compound?
The viability, T/C was 51.8%.

And the viability, T/C (second compound 1 µM, first compound 0.0316 µM)?
The viability, T/C was 31.4%.

What about the viability, T/C (second compound 1 µM, first compound 0.1 µM) of the same compound?
The viability, T/C was 36.5%.

What about the viability, T/C (second compound 1 µM, first compound 0.316 µM) of the same compound?
Its viability, T/C is 38.9%.

What about the viability, T/C (second compound 1 µM, first compound 1 µM) of the same compound?
Its viability, T/C is 24.8%.

And the viability, T/C (second compound 1 µM, first compound 3.16 µM)?
Its viability, T/C is 27.4%.

What about the viability, T/C (second compound 1 µM, first compound 10 µM) of the same compound?
The viability, T/C was 21%.

What about the viability, T/C (second compound 3.16 µM, first compound 0.0316 µM) of the same compound?
The viability, T/C was 14.7%.

What about the viability, T/C (second compound 3.16 µM, first compound 0.1 µM) of the same compound?
The viability, T/C was 18.3%.

And the viability, T/C (second compound 3.16 µM, first compound 0.316 µM)?
Its viability, T/C is 31.5%.

What about the viability, T/C (second compound 3.16 µM, first compound 1 µM) of the same compound?
Its viability, T/C is 14.1%.

And the viability, T/C (second compound 3.16 µM, first compound 3.16 µM)?
The viability, T/C was 22.6%.

And the viability, T/C (second compound 3.16 µM, first compound 10 µM)?
The viability, T/C was 19.1%.

What about the viability, T/C (second compound 10 µM, first compound 0.0316 µM) of the same compound?
The viability, T/C was 38.2%.

And the viability, T/C (second compound 10 µM, first compound 0.1 µM)?
The viability, T/C was 22.9%.

And the viability, T/C (second compound 10 µM, first compound 0.316 µM)?
The viability, T/C was 10.5%.

And the viability, T/C (second compound 10 µM, first compound 1 µM)?
Its viability, T/C is 13.7%.

What about the viability, T/C (second compound 10 µM, first compound 3.16 µM) of the same compound?
The viability, T/C was 11.1%.

And the viability, T/C (second compound 10 µM, first compound 10 µM)?
Its viability, T/C is 3.98%.
